# From PubChem BioAssay AID1963427 (Molecular Pharmacology Branch, DTP, NCI, 2024)
# Test system: 317291-083-R-J1-PDC complex spheroid growth
# Assay: Anticancer human tumor 317291-083-R-J1-PDC patient-derived soft tissue sarcoma cell line growth inhibition [Asc]
# Conditions: for IC50: curve of first compound; for viability, T/C: stronger effect = lower value
# Method in brief: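 Concentration series start at each agent's clinical Cmax, or at 10 microM when none is established, and drop in half-log steps; agents are applied alone or together to complex spheroids built with HUVEC and hMSC.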
# [1] = second compound 0.00316 µM, first compound 0.00316 µM
# [2] = second compound 0.00316 µM, first compound 0.01 µM
# [3] = second compound 0.00316 µM, first compound 0.0316 µM
# [4] = second compound 0.00316 µM, first compound 0.1 µM
# [5] = second compound 0.00316 µM, first compound 0.316 µM
# [6] = second compound 0.00316 µM, first compound 1 µM
# [7] = second compound 0.01 µM, first compound 0.00316 µM
# [8] = second compound 0.01 µM, first compound 0.01 µM
# [9] = second compound 0.01 µM, first compound 0.0316 µM
# [10] = second compound 0.01 µM, first compound 0.1 µM
# [11] = second compound 0.01 µM, first compound 0.316 µM
# [12] = second compound 0.01 µM, first compound 1 µM
# [13] = second compound 0.0316 µM, first compound 0.00316 µM
# [14] = second compound 0.0316 µM, first compound 0.01 µM
# [15] = second compound 0.0316 µM, first compound 0.0316 µM
# [16] = second compound 0.0316 µM, first compound 0.1 µM
# [17] = second compound 0.0316 µM, first compound 0.316 µM
# [18] = second compound 0.0316 µM, first compound 1 µM
# [19] = second compound 0.1 µM, first compound 0.00316 µM
# [20] = second compound 0.1 µM, first compound 0.01 µM
# [21] = second compound 0.1 µM, first compound 0.0316 µM
# [22] = second compound 0.1 µM, first compound 0.1 µM
# [23] = second compound 0.1 µM, first compound 0.316 µM
# [24] = second compound 0.1 µM, first compound 1 µM
# [25] = second compound 0.316 µM, first compound 0.00316 µM
# [26] = second compound 0.316 µM, first compound 0.01 µM
# [27] = second compound 0.316 µM, first compound 0.0316 µM
# [28] = second compound 0.316 µM, first compound 0.1 µM
# [29] = second compound 0.316 µM, first compound 0.316 µM
# [30] = second compound 0.316 µM, first compound 1 µM
# [31] = second compound 1 µM, first compound 0.00316 µM
# [32] = second compound 1 µM, first compound 0.01 µM
# [33] = second compound 1 µM, first compound 0.0316 µM
# [34] = second compound 1 µM, first compound 0.1 µM
# [35] = second compound 1 µM, first compound 0.316 µM
# [36] = second compound 1 µM, first compound 1 µM
# 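Further: compound exposure lasted seven days after spheroids formed for three days.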
# 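Wherever viability, T/C is given: 100% = DMSO vehicle control wells.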
compound,measurement,setting,value
CCN1CCN(Cc2ccc(Nc3ncc(F)c(-c4cc(F)c5nc(C)n(C(C)C)c5c4)n3)nc2)CC1 + CNC(C)C(=O)NC1CN(S(=O)(=O)c2cccc(S(=O)(=O)N3CCC4CCC(C(=O)NC(c5ccccc5)c5ccccc5)N4C(=O)C(NC(=O)C(C)NC)C3)c2)CCC2CCC(C(=O)NC(c3ccccc3)c3ccccc3)N2C1=O,IC50,second compound 0.00316 µM,0.345 µM
same,IC50,second compound 0.01 µM,0.32 µM
same,IC50,second compound 0.0316 µM,0.14 µM
same,IC50,second compound 0.1 µM,0.071 µM
same,IC50,second compound 0.316 µM,0.0181 µM
same,IC50,second compound 1 µM,< 0.00316 µM
same,"viability, T/C",[1],54.7%
same,"viability, T/C",[2],58.7%
same,"viability, T/C",[3],56.8%
same,"viability, T/C",[4],65%
same,"viability, T/C",[5],48.9%
same,"viability, T/C",[6],28%
same,"viability, T/C",[7],89.1%
same,"viability, T/C",[8],90%
same,"viability, T/C",[9],79.2%
same,"viability, T/C",[10],76%
same,"viability, T/C",[11],48.8%
same,"viability, T/C",[12],31.6%
same,"viability, T/C",[13],80.3%
same,"viability, T/C",[14],79.6%
same,"viability, T/C",[15],64.9%
same,"viability, T/C",[16],58.4%
same,"viability, T/C",[17],35.7%
same,"viability, T/C",[18],40.9%
same,"viability, T/C",[19],60.9%
same,"viability, T/C",[20],50.2%
same,"viability, T/C",[21],53.8%
same,"viability, T/C",[22],45.6%
same,"viability, T/C",[23],43.5%
same,"viability, T/C",[24],22.2%
same,"viability, T/C",[25],58.6%
same,"viability, T/C",[26],49.4%
same,"viability, T/C",[27],42.8%
same,"viability, T/C",[28],48%
same,"viability, T/C",[29],33.4%
same,"viability, T/C",[30],22.7%
same,"viability, T/C",[31],32.9%
same,"viability, T/C",[32],36.6%
same,"viability, T/C",[33],36.6%
same,"viability, T/C",[34],31.4%
same,"viability, T/C",[35],32.2%
same,"viability, T/C",[36],19.5%
Cn1ncnc1[C@H]1c2n[nH]c(=O)c3cc(F)cc(c23)N[C@@H]1c1ccc(F)cc1 + CNC(C)C(=O)NC1CN(S(=O)(=O)c2cccc(S(=O)(=O)N3CCC4CCC(C(=O)NC(c5ccccc5)c5ccccc5)N4C(=O)C(NC(=O)C(C)NC)C3)c2)CCC2CCC(C(=O)NC(c3ccccc3)c3ccccc3)N2C1=O,IC50,second compound 0.00316 µM,< 0.000316 µM
same,IC50,second compound 0.01 µM,< 0.000316 µM
same,IC50,second compound 0.0316 µM,0.0218 µM
same,IC50,second compound 0.1 µM,0.0172 µM
same,IC50,second compound 0.316 µM,0.00101 µM
same,IC50,second compound 1 µM,< 0.000316 µM
same,"viability, T/C","second compound 0.00316 µM, first compound 0.000316 µM",3.79%
same,"viability, T/C","second compound 0.00316 µM, first compound 0.001 µM",4.39%
same,"viability, T/C",[1],4.26%
same,"viability, T/C",[2],4.44%
same,"viability, T/C",[3],4.58%
same,"viability, T/C",[4],4.39%
same,"viability, T/C","second compound 0.01 µM, first compound 0.000316 µM",45.2%
same,"viability, T/C","second compound 0.01 µM, first compound 0.001 µM",37.4%
same,"viability, T/C",[7],46.9%
same,"viability, T/C",[8],29.3%
same,"viability, T/C",[9],28.5%
same,"viability, T/C",[10],34.5%
same,"viability, T/C","second compound 0.0316 µM, first compound 0.000316 µM",79%
same,"viability, T/C","second compound 0.0316 µM, first compound 0.001 µM",86%
same,"viability, T/C",[13],82.5%
same,"viability, T/C",[14],57%
same,"viability, T/C",[15],40.3%
same,"viability, T/C",[16],52.7%
same,"viability, T/C","second compound 0.1 µM, first compound 0.000316 µM",95.4%
same,"viability, T/C","second compound 0.1 µM, first compound 0.001 µM",76.5%
same,"viability, T/C",[19],60.8%
same,"viability, T/C",[20],56.6%
same,"viability, T/C",[21],39.3%
same,"viability, T/C",[22],50.4%
same,"viability, T/C","second compound 0.316 µM, first compound 0.000316 µM",58.8%
same,"viability, T/C","second compound 0.316 µM, first compound 0.001 µM",55.7%
same,"viability, T/C",[25],36.8%
same,"viability, T/C",[26],41.6%
same,"viability, T/C",[27],28.9%
same,"viability, T/C",[28],35.9%
same,"viability, T/C","second compound 1 µM, first compound 0.000316 µM",34%
same,"viability, T/C","second compound 1 µM, first compound 0.001 µM",37.4%
same,"viability, T/C",[31],28.1%
same,"viability, T/C",[32],30.9%
same,"viability, T/C",[33],29.2%
same,"viability, T/C",[34],22.3%
O=C(c1ccc(F)c(F)c1Nc1ccc(I)cc1F)N1CC(O)([C@@H]2CCCCN2)C1 + CNC(C)C(=O)NC1CN(S(=O)(=O)c2cccc(S(=O)(=O)N3CCC4CCC(C(=O)NC(c5ccccc5)c5ccccc5)N4C(=O)C(NC(=O)C(C)NC)C3)c2)CCC2CCC(C(=O)NC(c3ccccc3)c3ccccc3)N2C1=O,IC50,second compound 0.00316 µM,0.203 µM
same,IC50,second compound 0.01 µM,0.244 µM
same,IC50,second compound 0.0316 µM,0.258 µM
same,IC50,second compound 0.1 µM,0.0744 µM
same,IC50,second compound 0.316 µM,0.0781 µM
same,IC50,second compound 1 µM,< 0.00316 µM
same,"viability, T/C",[1],75.5%
same,"viability, T/C",[2],69.5%
same,"viability, T/C",[3],63.3%
same,"viability, T/C",[4],71.5%
same,"viability, T/C",[5],37.5%
same,"viability, T/C",[6],13.9%
same,"viability, T/C",[7],100%
same,"viability, T/C",[8],73.2%
same,"viability, T/C",[9],75.2%
same,"viability, T/C",[10],91.7%
same,"viability, T/C",[11],39.8%
same,"viability, T/C",[12],23.4%
same,"viability, T/C",[13],92%
same,"viability, T/C",[14],72%
same,"viability, T/C",[15],73.6%
same,"viability, T/C",[16],90%
same,"viability, T/C",[17],43.1%
same,"viability, T/C",[18],14.7%
same,"viability, T/C",[19],72.3%
same,"viability, T/C",[20],83.5%
same,"viability, T/C",[21],56.3%
same,"viability, T/C",[22],49.9%
same,"viability, T/C",[23],19%
same,"viability, T/C",[24],8.71%
same,"viability, T/C",[25],60.1%
same,"viability, T/C",[26],63.7%
same,"viability, T/C",[27],47.8%
same,"viability, T/C",[28],47.9%
same,"viability, T/C",[29],38.6%
same,"viability, T/C",[30],7.49%
same,"viability, T/C",[31],37.1%
same,"viability, T/C",[32],42.3%
same,"viability, T/C",[33],37.9%
same,"viability, T/C",[34],33.5%
same,"viability, T/C",[35],14.8%
same,"viability, T/C",[36],5.83%
